For the series the following is noted: same subject; Celebrex initiated and stopped after 3 days.

Take `Cc1ccc(-c2cc(C(F)(F)F)nn2-c2ccc(S(N)(=O)=O)cc2)cc1` [Celebrex, celecoxib]: the “Side effects leading to discontinuation” value is “drowsiness and GI side effects”.

The values above are taken from patent publication US12403091B2, “Delivery system” (SMARTECH TOPICAL, INC., priority 2016, dated 2025).
